# Like-named read-outs stand apart in the source and are kept apart here.
# Experiments:
# [1] = system: Glutamate receptors expressed in primary cultures of rat cerebral cortex neurocytes; experiment: Electrophysiological evaluation (patch clamp whole cell) in primary cultures of rat cerebral cortex neurocytes; format: cell-based
# Description: Electrophysiological evaluation in primary cultures of rat cerebral cortex neurocytes
# [2] = molecular target: AMPA receptors; experiment: Radiobinding assay in rat brain synaptic membrane samples, [^3 H] AMPA (AMPA receptors); format: binding; conditions: [^3 H] AMPA 5 nM, 4° C., 1 hour; for IC50: 100 mM KSCN/50 mM Tris-acetate pH 7.4, read-out: IC50, inhibition of [^3 H] AMPA binding
# Protocol: (§1) Radiobinding assay in rat brain synaptic membrane samples
# (§2) Rat brain synaptic membrane samples were prepared according to the described protocols (London, E. D., Coyle, J. T., Mol. Pharmacol. 1979, 15, 492; Murphy, D. E., Snowhill, E. W.; Williams, M., Neurochem. Res. 1987, 12, 775 and Murphy, D. E., Hutchison, A. J., Hurt, S. D., Williams, M., Sills, M. A., Br. J. Pharmacol. 1988, 95, 932). Radioligands and incubation conditions used in the binding assay as well as experimental results are as follows:
# [Conditions]: ligand [^3 H] AMPA 5 nM; incubation medium 100 mM KSCN/50 mM Tris-acetate buffer (pH 7.4); incubation condition 4° C., 1 hour.
# [3] = molecular target: KA receptors; experiment: Radiobinding assay in rat brain synaptic membrane samples, [^3 H] kainic acid (KA receptors); format: binding; conditions: [^3 H] kainic acid 1 nM, 4° C., 1 hour; for IC50: 100 mM Tris-acetate pH 7.1, read-out: IC50, inhibition of [^3 H] kainic acid binding
# Protocol: as §1, §2
# [Conditions]: ligand [^3 H] kainic acid 1 nM; incubation medium 100 mM Tris-acetate buffer (pH 7.1); incubation condition 4° C., 1 hour.
# [4] = system: NMDA receptors; experiment: Radiobinding assay in rat brain synaptic membrane samples, [^3 H] CGS-19755 (NMDA receptors); format: binding; conditions: [^3 H] CGS-19755 10 nM; 50 mM Tris-acetate pH 8.0; 4° C., 1 hour
# Protocol: as §1, §2
# [Conditions]: ligand [^3 H] CGS-19755 10 nM; incubation medium 50 mM Tris-acetate buffer (pH 8.0); incubation condition 4° C., 1 hour.
# [5] = system: DDY mouse; experiment: Intraperitoneal administration to mice; format: in vivo
# Protocol: Intraperitoneal administration to mice
# Compound (1) was diluted with purified water and intraperitoneally injected into a DDY mouse (male, 15 g).
# [6] = system: rats; conditions: prior art statement; cited from earlier work
# [7] = inward current, patch clamp whole cell; cultures grown 10-21 days
# [8] = read-out: EC50, inward current; patch clamp whole cell; cultures grown 10-21 days
smiles,measurement,setting,value
"CNC1C(O)COC2CC(CC(N)C(=O)O)(C(=O)O)OC21 (centres unmarked) [Compound (1), dysiherbaine]",inward current compared with kainic acid,[1]; compared with kainic acid,stronger inward current than kainic acid
same,Max response,[1]; [7],1.40 nA
same,induction of inward current,[1]; patch clamp whole cell,concentration-dependently induced a strong inward current
same,EC50,[1]; [8],4 µM
same,IC50,[2],0.224 ± 0.022 µM
same,inhibition of [^3 H] AMPA binding to AMPA receptors,[2]; pH 7.4,concentration-dependently inhibited
same,IC50,[3],0.059 ± 0.0078 µM
same,inhibition of [^3 H] kainic acid binding to KA receptors,[3]; pH 7.1,concentration-dependently inhibited
same,inhibition of [^3 H] CGS-19755 binding to NMDA receptors,[4],did not inhibit
same,"behavioural effect, low dose","[5]; 20 μg/kg i.p., male DDY mouse",repeat scratching on the flank
same,duration of repeated scratching on the flank,"[5]; 20 μg/kg i.p., male DDY mouse",10 to 20 min
same,"behavioural effect, moderate dose","[5]; 1.3 mg/kg i.p., male DDY mouse",epileptoid spasm
same,"recovery, moderate dose","[5]; 1.3 mg/kg i.p., male DDY mouse",recovered from this condition on the following day
same,"effect, higher dose","[5]; 6.5 mg/kg i.p., male DDY mouse",died in about 40 minutes after violent attack
same,time to death,"[5]; 6.5 mg/kg i.p., male DDY mouse",about 40 minutes
same,in vivo activity compared with domoic acid,[5]; compared with known KA agonist domoic acid,stronger in vivo activity than a known KA agonist domoic acid
"N[C@@H](CCC(=O)O)C(=O)O [Glutamic acid, L-glutamic acid, reference compound]",IC50,[2],0.124 ± 0.041 µM
same,IC50,[3],0.11 ± 0.018 µM
"N#Cc1cc2[nH]c(=O)c(=O)[nH]c2cc1[N+](=O)[O-] [CNQX, 6-cyano-7-nitroquinoxaline-2,3-dione]",inhibition of the current induced by Compound (1),[1]; current induced by Compound (1),significantly inhibited
"Cc1onc(O)c1CC(N)C(=O)O (stereo not drawn) [AMPA, α-amino-3-hydroxy-5-methyl-4-isoxazolepropionic acid]",Max response,[1]; [7],1.26 nA
same,EC50,"[1]; patch clamp whole cell; cultures grown 10-21 days; read-out: EC50, inward current",4 µM
same,IC50,[2],0.0056 ± 0.0011 µM
"C=C(C)[C@H]1CN[C@H](C(=O)O)[C@H]1CC(=O)O [Kainic acid, kainic acid]",Max response,[1]; [7],1.31 nA
same,EC50,[1]; [8],40 µM
same,IC50,[3],0.0043 ± 0.0005 µM
same,lesions and neuronal degeneration in rats,[6],induces epileptoid lesions and neuronal degeneration in rats
